Measurements published in the kinase profiling compilation of Christmann-Franck et al. (2016).

Legend:
Assay in all cases: radiometric filter-binding kinase assay, Kinase HotSpot
Settings in all cases: compound 0.5 µM; ATP 10 µM
ADRBK2 (human) = ADRBK2 (human) (UniProt P35626)
CAMK2A (human) = CAMK2A (human) (UniProt Q9UQM7)
CAMK4 (human) = CAMK4 (human) (UniProt Q16566)
CAMKK1 (human) = CAMKK1 (human) (UniProt Q8N5S9)
CDK1 CCNB1 (human) = CDK1 CCNB1 (human) (UniProt P06493+P14635)
CSNK2A1 (human) = CSNK2A1 (human) (UniProt P68400)
DYRK3 (human) = DYRK3 (human) (UniProt O43781)
EPHA2 (human) = EPHA2 (human) (UniProt P29317)
EPHA3 (human) = EPHA3 (human) (UniProt P29320)
EPHA8 (human) = EPHA8 (human) (UniProt P29322)
FGFR2 (human) = FGFR2 (human) (UniProt P21802)
GRK4 (human) = GRK4 (human) (UniProt P32298)
GRK4 (human), sequence (P32298 whole entry, looked up): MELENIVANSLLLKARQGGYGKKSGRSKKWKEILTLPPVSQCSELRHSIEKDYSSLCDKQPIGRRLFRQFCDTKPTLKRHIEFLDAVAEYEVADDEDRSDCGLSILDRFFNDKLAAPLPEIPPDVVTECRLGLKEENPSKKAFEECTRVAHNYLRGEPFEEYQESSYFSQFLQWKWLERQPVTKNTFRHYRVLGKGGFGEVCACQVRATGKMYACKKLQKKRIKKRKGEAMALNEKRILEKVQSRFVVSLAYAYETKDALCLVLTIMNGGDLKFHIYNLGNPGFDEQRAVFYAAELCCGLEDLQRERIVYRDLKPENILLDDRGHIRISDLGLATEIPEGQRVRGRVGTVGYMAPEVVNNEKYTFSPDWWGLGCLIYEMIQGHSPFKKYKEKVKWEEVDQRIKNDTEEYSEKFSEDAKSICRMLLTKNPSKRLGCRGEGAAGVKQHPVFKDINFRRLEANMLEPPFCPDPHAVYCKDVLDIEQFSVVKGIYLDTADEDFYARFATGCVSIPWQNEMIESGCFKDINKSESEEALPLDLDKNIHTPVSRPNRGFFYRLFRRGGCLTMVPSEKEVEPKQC

HIPK1 (human) = HIPK1 (human) (UniProt Q86Z02)
INSR (human) = INSR (human) (UniProt P06213)
INSRR (human) = INSRR (human) (UniProt P14616)
MAPK1 (human) = MAPK1 (human) (UniProt P28482)
MAPKAPK2 (human) = MAPKAPK2 (human) (UniProt P49137)
MARK2 (human) = MARK2 (human) (UniProt Q7KZI7)
MERTK (human) = MERTK (human) (UniProt Q12866)
MERTK (human), sequence (Q12866 whole entry, looked up): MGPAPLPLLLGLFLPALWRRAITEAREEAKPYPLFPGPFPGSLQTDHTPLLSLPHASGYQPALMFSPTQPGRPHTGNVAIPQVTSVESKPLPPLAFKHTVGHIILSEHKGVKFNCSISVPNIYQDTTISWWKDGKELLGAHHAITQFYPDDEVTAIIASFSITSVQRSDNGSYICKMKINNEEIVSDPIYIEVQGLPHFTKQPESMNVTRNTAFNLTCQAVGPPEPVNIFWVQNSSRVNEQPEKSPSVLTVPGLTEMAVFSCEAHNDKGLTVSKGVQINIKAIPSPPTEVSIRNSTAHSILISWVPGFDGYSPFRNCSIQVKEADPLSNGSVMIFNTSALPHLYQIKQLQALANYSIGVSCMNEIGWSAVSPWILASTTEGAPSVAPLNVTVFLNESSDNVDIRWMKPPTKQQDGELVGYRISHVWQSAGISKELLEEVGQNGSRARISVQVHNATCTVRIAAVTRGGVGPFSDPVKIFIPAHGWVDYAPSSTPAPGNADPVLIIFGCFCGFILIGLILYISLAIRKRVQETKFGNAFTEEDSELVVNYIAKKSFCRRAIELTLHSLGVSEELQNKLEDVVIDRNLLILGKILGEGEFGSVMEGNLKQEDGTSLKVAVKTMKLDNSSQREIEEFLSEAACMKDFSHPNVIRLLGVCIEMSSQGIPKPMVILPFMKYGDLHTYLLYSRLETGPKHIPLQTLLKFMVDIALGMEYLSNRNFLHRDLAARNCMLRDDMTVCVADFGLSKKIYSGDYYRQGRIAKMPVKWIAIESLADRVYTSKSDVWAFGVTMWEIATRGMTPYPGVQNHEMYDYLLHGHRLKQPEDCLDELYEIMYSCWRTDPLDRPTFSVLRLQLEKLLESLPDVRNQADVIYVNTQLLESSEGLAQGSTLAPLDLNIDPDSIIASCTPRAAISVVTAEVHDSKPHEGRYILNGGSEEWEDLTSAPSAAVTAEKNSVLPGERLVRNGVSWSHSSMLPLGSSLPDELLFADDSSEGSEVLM

MKNK2 (human) = MKNK2 (human) (UniProt Q9HBH9)
MKNK2 (human), sequence (Q9HBH9 whole entry, looked up): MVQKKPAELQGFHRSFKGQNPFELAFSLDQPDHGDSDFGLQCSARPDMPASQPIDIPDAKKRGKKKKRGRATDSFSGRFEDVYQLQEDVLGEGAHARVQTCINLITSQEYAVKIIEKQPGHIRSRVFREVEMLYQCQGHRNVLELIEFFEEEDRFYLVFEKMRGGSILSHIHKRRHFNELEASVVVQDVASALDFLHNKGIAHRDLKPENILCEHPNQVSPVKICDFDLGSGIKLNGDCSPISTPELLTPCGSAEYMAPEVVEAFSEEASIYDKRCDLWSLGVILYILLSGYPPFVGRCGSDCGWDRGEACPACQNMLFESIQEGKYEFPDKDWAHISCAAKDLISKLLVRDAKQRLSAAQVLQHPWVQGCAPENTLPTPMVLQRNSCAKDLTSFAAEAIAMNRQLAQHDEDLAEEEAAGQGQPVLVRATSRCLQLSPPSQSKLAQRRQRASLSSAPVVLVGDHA

MYLK (human) = MYLK (human) (UniProt Q15746)
MYLK2 (human) = MYLK2 (human) (UniProt Q9H1R3)
NEK2 (human) = NEK2 (human) (UniProt P51955)
NEK9 (human) = NEK9 (human) (UniProt Q8TD19)
NLK (human) = NLK (human) (UniProt Q9UBE8)
NUAK2 (human) = NUAK2 (human) (UniProt Q9H093)
PAK1 (human) = PAK1 (human) (UniProt Q13153)
PAK2 (human) = PAK2 (human) (UniProt Q13177)
PAK4 (human) = PAK4 (human) (UniProt O96013)
PIM3 (human) = PIM3 (human) (UniProt Q86V86)
PRKCG (human) = PRKCG (human) (UniProt P05129)
PTK6 (human) = PTK6 (human) (UniProt Q13882)
RAF1 (human) = RAF1 (human) (UniProt P04049)
RET (human) = RET (human) (UniProt P07949)
ROCK1 (human) = ROCK1 (human) (UniProt Q13464)
RPS6KA1 KD1 KD2 (human) = RPS6KA1 KD1 KD2 (human) (UniProt Q15418)
SGK3 (human) = SGK3 (human) (UniProt Q96BR1)
SRPK2 (human) = SRPK2 (human) (UniProt P78362)
SRPK2 (human), sequence (P78362 whole entry, looked up): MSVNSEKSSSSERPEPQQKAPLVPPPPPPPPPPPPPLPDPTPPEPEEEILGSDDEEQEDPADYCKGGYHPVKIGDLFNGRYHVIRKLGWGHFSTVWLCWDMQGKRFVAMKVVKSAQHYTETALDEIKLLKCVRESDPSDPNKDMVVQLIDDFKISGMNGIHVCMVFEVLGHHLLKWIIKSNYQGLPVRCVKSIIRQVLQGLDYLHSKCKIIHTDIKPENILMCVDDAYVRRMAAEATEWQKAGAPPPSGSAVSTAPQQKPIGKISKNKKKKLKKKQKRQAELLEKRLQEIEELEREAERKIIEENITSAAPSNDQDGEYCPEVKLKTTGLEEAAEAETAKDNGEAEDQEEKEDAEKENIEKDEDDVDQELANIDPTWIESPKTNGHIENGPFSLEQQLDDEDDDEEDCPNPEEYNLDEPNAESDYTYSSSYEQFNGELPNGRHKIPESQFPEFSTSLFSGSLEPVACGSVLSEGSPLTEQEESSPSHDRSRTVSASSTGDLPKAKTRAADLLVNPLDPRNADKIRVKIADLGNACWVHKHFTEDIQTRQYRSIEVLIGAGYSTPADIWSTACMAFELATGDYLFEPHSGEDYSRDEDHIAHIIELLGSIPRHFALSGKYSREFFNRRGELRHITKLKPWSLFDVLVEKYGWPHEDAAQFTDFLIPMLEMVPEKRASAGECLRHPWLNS

STK17A (human) = STK17A (human) (UniProt Q9UEE5)
STK17A (human), sequence (Q9UEE5 whole entry, looked up): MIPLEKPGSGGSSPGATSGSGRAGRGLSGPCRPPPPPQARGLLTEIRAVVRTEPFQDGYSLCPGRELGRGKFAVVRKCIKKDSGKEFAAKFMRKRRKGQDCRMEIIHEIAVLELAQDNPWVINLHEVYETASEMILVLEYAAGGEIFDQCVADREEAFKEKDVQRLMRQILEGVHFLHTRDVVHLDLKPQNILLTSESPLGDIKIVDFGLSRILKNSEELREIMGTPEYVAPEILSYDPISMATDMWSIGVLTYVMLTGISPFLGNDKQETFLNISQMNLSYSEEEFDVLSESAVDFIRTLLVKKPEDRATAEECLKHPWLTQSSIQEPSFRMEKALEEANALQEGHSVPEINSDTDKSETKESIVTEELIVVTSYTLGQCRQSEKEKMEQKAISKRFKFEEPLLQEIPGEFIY

TAOK3 (human) = TAOK3 (human) (UniProt Q9H2K8)
TAOK3 (human), sequence (Q9H2K8 whole entry, looked up): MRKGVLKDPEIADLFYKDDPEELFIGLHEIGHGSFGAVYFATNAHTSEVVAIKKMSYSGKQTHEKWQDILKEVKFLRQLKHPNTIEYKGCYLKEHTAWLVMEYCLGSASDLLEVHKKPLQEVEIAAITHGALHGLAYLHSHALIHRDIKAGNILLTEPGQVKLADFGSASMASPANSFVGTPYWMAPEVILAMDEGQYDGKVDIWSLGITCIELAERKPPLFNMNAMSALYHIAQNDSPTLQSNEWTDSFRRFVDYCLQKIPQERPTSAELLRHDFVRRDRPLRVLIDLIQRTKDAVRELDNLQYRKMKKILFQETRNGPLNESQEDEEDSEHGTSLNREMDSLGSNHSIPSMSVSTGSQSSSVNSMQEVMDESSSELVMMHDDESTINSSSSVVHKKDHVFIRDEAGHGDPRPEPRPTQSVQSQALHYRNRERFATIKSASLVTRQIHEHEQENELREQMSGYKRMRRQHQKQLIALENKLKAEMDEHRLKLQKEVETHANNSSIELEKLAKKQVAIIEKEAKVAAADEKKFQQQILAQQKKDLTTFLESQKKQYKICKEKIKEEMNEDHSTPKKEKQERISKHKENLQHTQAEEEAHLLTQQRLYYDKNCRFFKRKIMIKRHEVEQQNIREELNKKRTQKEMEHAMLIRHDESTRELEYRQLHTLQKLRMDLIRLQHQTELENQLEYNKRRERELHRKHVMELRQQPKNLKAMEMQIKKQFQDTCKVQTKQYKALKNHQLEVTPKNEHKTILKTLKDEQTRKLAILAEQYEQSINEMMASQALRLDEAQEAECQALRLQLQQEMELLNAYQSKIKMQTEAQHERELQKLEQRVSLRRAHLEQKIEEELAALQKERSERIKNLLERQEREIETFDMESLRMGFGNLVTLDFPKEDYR

TTK (human) = TTK (human) (UniProt P33981)
ULK2 (human) = ULK2 (human) (UniProt Q8IYT8)

CAMK4 (human), sequence (Q16566 whole entry, looked up): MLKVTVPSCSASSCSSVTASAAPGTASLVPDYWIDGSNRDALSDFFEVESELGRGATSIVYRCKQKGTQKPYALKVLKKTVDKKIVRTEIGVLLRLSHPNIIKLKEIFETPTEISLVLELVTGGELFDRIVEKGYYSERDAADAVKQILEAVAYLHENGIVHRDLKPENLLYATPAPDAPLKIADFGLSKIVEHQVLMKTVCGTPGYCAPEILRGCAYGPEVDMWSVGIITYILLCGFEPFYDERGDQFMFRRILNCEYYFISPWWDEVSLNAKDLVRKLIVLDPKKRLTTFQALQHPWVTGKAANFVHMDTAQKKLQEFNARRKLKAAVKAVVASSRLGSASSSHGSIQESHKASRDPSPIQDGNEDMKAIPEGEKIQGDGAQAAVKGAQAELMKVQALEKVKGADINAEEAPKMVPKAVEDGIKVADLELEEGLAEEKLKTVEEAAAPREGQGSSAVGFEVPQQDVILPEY

O=C1NC(=O)C(c2cn(CCCO)c3ncccc23)=C1c1cnccn1
residual activity (ADRBK2 (human)): 99.9% | residual activity (CAMK2A (human)): 108% | residual activity (CAMK4 (human)): 95.6% | residual activity (CAMKK1 (human)): 107% | residual activity (CDK1 CCNB1 (human)): 81.1% | residual activity (CSNK2A1 (human)): 78.9% | residual activity (DYRK3 (human)): 79.6% | residual activity (EPHA2 (human)): 105% | residual activity (EPHA3 (human)): 102% | residual activity (EPHA8 (human)): 86.9% | residual activity (FGFR2 (human)): 103% | residual activity (GRK4 (human)): 90.1% | residual activity (HIPK1 (human)): 84.2% | residual activity (INSR (human)): 92.9% | residual activity (INSRR (human)): 93.2% | residual activity (MAPK1 (human)): 81.9% | residual activity (MAPKAPK2 (human)): 91% | residual activity (MARK2 (human)): 97.5% | residual activity (MERTK (human)): 78.7% | residual activity (MKNK2 (human)): 69.1% | residual activity (MYLK (human)): 74% | residual activity (MYLK2 (human)): 81.1% | residual activity (NEK2 (human)): 97.5% | residual activity (NEK9 (human)): 93.4% | residual activity (NLK (human)): 91.2% | residual activity (NUAK2 (human)): 92.3% | residual activity (PAK1 (human)): 101% | residual activity (PAK2 (human)): 105% | residual activity (PAK4 (human)): 111% | residual activity (PIM3 (human)): 16.7% | residual activity (PRKCG (human)): 93.1% | residual activity (PTK6 (human)): 101% | residual activity (RAF1 (human)): 100% | residual activity (RET (human)): 54.5% | residual activity (ROCK1 (human)): 90.2% | residual activity (RPS6KA1 KD1 KD2 (human)): 94.8% | residual activity (SGK3 (human)): 124% | residual activity (SRPK2 (human)): 97.9% | residual activity (STK17A (human)): 93.6% | residual activity (TAOK3 (human)): 88.2% | residual activity (TTK (human)): 94.5% | residual activity (ULK2 (human)): 96.7%

O=C1NC(=O)/C(=C\c2ccc3nccnc3c2)S1
residual activity (ADRBK2 (human)): 111% | residual activity (CAMK2A (human)): 92.3% | residual activity (CAMK4 (human)): 106% | residual activity (CAMKK1 (human)): 81.8% | residual activity (CDK1 CCNB1 (human)): 93.8% | residual activity (CSNK2A1 (human)): 3.08% | residual activity (DYRK3 (human)): 71.5% | residual activity (EPHA2 (human)): 99.9% | residual activity (EPHA3 (human)): 97.1% | residual activity (EPHA8 (human)): 94.2% | residual activity (FGFR2 (human)): 95% | residual activity (GRK4 (human)): 106% | residual activity (HIPK1 (human)): 104% | residual activity (INSR (human)): 108% | residual activity (INSRR (human)): 111% | residual activity (MAPK1 (human)): 85.2% | residual activity (MAPKAPK2 (human)): 97.7% | residual activity (MARK2 (human)): 93% | residual activity (MERTK (human)): 92.1% | residual activity (MKNK2 (human)): 98.2% | residual activity (MYLK (human)): 97.1% | residual activity (MYLK2 (human)): 97.2% | residual activity (NEK2 (human)): 92.2% | residual activity (NEK9 (human)): 111% | residual activity (NLK (human)): 92.4% | residual activity (NUAK2 (human)): 76% | residual activity (PAK1 (human)): 96% | residual activity (PAK2 (human)): 98.4% | residual activity (PAK4 (human)): 88.5% | residual activity (PIM3 (human)): 67.3% | residual activity (PRKCG (human)): 105% | residual activity (PTK6 (human)): 95.1% | residual activity (RAF1 (human)): 92.3% | residual activity (RET (human)): 97.7% | residual activity (ROCK1 (human)): 94% | residual activity (RPS6KA1 KD1 KD2 (human)): 80.7% | residual activity (SGK3 (human)): 94.3% | residual activity (SRPK2 (human)): 98.2% | residual activity (STK17A (human)): 94.6% | residual activity (TAOK3 (human)): 93.1% | residual activity (TTK (human)): 102% | residual activity (ULK2 (human)): 104%

O=C1Nc2ccccc2/C1=C1\Nc2ccccc2\C1=N/O
residual activity (ADRBK2 (human)): 108% | residual activity (CAMK2A (human)): 50.2% | residual activity (CAMK4 (human)): 97.4% | residual activity (CAMKK1 (human)): 53.6% | residual activity (CDK1 CCNB1 (human)): 68.7% | residual activity (CSNK2A1 (human)): 78.2% | residual activity (DYRK3 (human)): 106% | residual activity (EPHA2 (human)): 84.3% | residual activity (EPHA3 (human)): 92% | residual activity (EPHA8 (human)): 91.1% | residual activity (FGFR2 (human)): 92.1% | residual activity (GRK4 (human)): 98.3% | residual activity (HIPK1 (human)): 98.9% | residual activity (INSR (human)): 66.8% | residual activity (INSRR (human)): 35.7% | residual activity (MAPK1 (human)): 96.6% | residual activity (MAPKAPK2 (human)): 105% | residual activity (MARK2 (human)): 78.4% | residual activity (MERTK (human)): 82.2% | residual activity (MKNK2 (human)): 82.1% | residual activity (MYLK (human)): 65% | residual activity (MYLK2 (human)): 41.1% | residual activity (NEK2 (human)): 109% | residual activity (NEK9 (human)): 95.4% | residual activity (NLK (human)): 94.6% | residual activity (NUAK2 (human)): 72.5% | residual activity (PAK1 (human)): 86.1% | residual activity (PAK2 (human)): 96.7% | residual activity (PAK4 (human)): 77.1% | residual activity (PIM3 (human)): 73.6% | residual activity (PRKCG (human)): 96.7% | residual activity (PTK6 (human)): 97.2% | residual activity (RAF1 (human)): 99.3% | residual activity (RET (human)): 8.05% | residual activity (ROCK1 (human)): 101% | residual activity (RPS6KA1 KD1 KD2 (human)): 39.6% | residual activity (SGK3 (human)): 102% | residual activity (SRPK2 (human)): 91.3% | residual activity (STK17A (human)): 46% | residual activity (TAOK3 (human)): 62.6% | residual activity (TTK (human)): 68% | residual activity (ULK2 (human)): 103%
